# Tested on: mitochondrial Complex I
# Experiment: High resolution respirometry of cardiac mitochondria isolated from spermidine supplemented aged mice (Complex I activity)
# Format: in vivo, C57BL/6 mice
# Conditions: for activity of mitochondrial Complex I (respiratory competence of cardiac mitochondria through respiratory chain complex I, OXPHOS stage): isolated cardiac mitochondria of 24 month old mice after 6 months of spermidine supplementation (24M+S) vs aged control (24M), complex I supplying substrates, 37° C., N-5/5
# Description: Mitochondria isolated from cardyomyocytes of spermidine or sham treated 24 month old and 4 month old (young reference) C57B/63 wildtype mice were used for measurement of mitochondrial respiratory activity.
# Wild type C57BL/6 mice were purchased from Janvier Labs, France (C57BL6/J:Rj males). Supplementation of spermidine was conducted late in life (starting at age of 18 months). After 6 months of treatment, isolation of cardiac mitochondria and high resolution respirometry was performed, using an isolation buffer containing 0.2% BSA and 5 mg/ml bacterial protease (Sigma-Aldrich, P8038). Hearts were quickly excised immediately after final blood collection under isoflurane anaesthesia and processed.
# Optical density at 600 nm (0D600) of the final mitochondrial suspension (isolation buffer including BSA, but excluding protease) was determined by serial dilutions in a TECAN GeniusPro plate reader and served as an estimate of mitochondrial mass used for normalization. Oxygen consumption was assayed at 37° C. with an Oxygraph 2 k high resolution respirometer (Oroboros Instruments, Austria) according to the manufacturer's recommendations. OD600 equivalents of isolated myocardial mitochondria corresponding to 10-20 ug mitochondrial protein were diluted in 2 ml equilibrated measurement medium (100 mM sucrose, 20 mM K+−TES (pH=7.2), 50 mM KCl, 2 mM MgCl2, 1 mM EDTA, 4 mM KH2PO4, 3 mM malate and 0.1% (v/v) BSA) within a closed and calibrated system with constant stirring. […]
# In FIG. 1A representative oxygraph recordings and (B) quantification of mitochondrial respiration (only OXPHOS stage shown) from isolated cardiac mitochondria incubated with complex I supplying substrates […] and pyruvate (Gly/Pyr) are shown. ROX, Residual respiration (State 1) in the absence of reduced substrate and ADP; LEAK, Respiration compensating for proton leak in the absence of ADP but presence of reduced substrate; OXPHOS, ADP stimulated respiration of coupled mitochondria (quantification shown in FIG. 1B); OXPHOS+CytC, Oxphos after addition of cytochrome C. […]
smiles,measurement,setting,value
"NCCCCNCCCN [Spermidine, N-(3-Aminopropyl)-1,4-diaminobutane]",age-induced decline in mitochondrial respiratory function,"aged spermidine supplemented mice vs aged control and young reference mice, cardiac mitochondria",reversed
same,"activity of mitochondrial Complex I (respiratory competence of cardiac mitochondria through respiratory chain complex I, OXPHOS stage)",,increases the activity of mitochondrial Complex I
same,"activity of mitochondrial Complex I (respiratory competence of cardiac mitochondria through respiratory chain complex I, OXPHOS stage)",listed as spermidine,increased
